≈ marks a conversion by molar mass, not a printed value.

In assay [1] the test system is ASAU001 (laboratory strain of S. aureus, ATCC29213). Briefly: MIC broth microdilution, ASAU001. It counts as cell-based. As to conditions: Staphylococcus aureus, ATCC29213, read-out: MIC ASAU001. In a few lines:
(§1)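 Inocula prepared from 0.5 McFarland suspensions (final 3×10^5–7×10^5 CFU/mL) were added to 2-fold drug dilution series in cation-adjusted Mueller-Hinton broth. Plates stood 18-24 hours at 35° C. under ambient air.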
(In general: Dilution methods test growth across graded concentrations, often in twofold steps.)

The test system of a further assay is APAE001 (ATCC27853). Briefly: MIC broth microdilution, APAE001. It counts as cell-based, P. aeruginosa. As to conditions: Pseudomonas aeruginosa, ATCC27853, read-out: MIC APAE001, APAE001 is ATCC27853. The method in brief: as §1
The test system of assay [2] is APAE006 (strain of P. aeruginosa in which all efflux pumps are inactivated). Briefly: microbe, parasite or virus in culture. The assay is classed as cell-based. As to conditions: Pseudomonas aeruginosa, read-out: MIC APAE006, P. aeruginosa, all efflux pumps inactivated. The method in brief:
(§2)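 CLSI broth microdilution in cation-adjusted Mueller-Hinton broth, final inoculum 3×10^5–7×10^5 CFU/mL, 2-fold drug dilutions, 18-24 hours at 35° C. in ambient air. APAE006 is an efflux-pump-inactivated P. aeruginosa strain. Assay performance monitored with QC strains and levofloxacin.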

For the next assay, the system named is AECO001 HSA AGP. The assay can be described thus: MIC broth microdilution, AECO001 HSA AGP. The assay is classed as cell-based, E. coli. To be noted: Escherichia coli. In a few lines:
as §1

Assay [3] deals with AECO063 (ATCC25922 bearing an acrAB mutation). The assay can be described thus: microbe, parasite or virus in culture. It counts as cell-based, E. coli. As to conditions: Escherichia coli, ATCC25922, read-out: MIC AECO063. In a few lines: as §1
A further assay deals with AECO001 (ATCC25922). Briefly: MIC broth microdilution, AECO001. It counts as cell-based, E. coli. To be noted: Escherichia coli, ATCC25922, read-out: MIC AECO001. In a few lines:
as §1

Assay [4] concerns APAE006 in the presence of 8 micrograms per milliliter of polymyxin B nonapeptide. It counts as cell-based, P. aeruginosa. To be noted: in the presence of 8 micrograms per milliliter of polymyxin B nonapeptide. In a few lines: as §2
Assay [5] concerns AABA1060 (clinical isolate of Acinetobacter baumannii). Briefly: MIC broth microdilution, AABA1060. As to conditions: Acinetobacter baumannii, read-out: MIC AABA1060. The assay is classed as cell-based. In a few lines: as §1

With `C[C@@H](N)[C@H](NC(=O)c1ccc(C#Cc2ccc(CNCC(C)(C)C)cc2)cc1)C(=O)NO` [Example 118-4], the MIC was more than 64 µg/mL in assay [1]; less than 2 µg/mL in the assay with APAE001 (ATCC27853); less than 2 µg/mL in assay [2]; 2 to 16 µg/mL (≈ 4.58 to 36.7 µM) in the assay on AECO001 HSA AGP; less than 2 µg/mL in assay [3]; less than 2 µg/mL with AECO001 (ATCC25922). The MIC in assay [5] was 16 to 64 µg/mL (≈ 36.7 to 147 µM). Moreover, the “MIC APAE006 + PMBN” value in assay [4] is given as “A (MIC's of 2.0 μg/mL or less = A)”.
On to `CC(C)(O)[C@H](NC(=O)c1ccc(C#C/C=C/c2ccc(CNC3CC3)cc2)cc1)C(=O)NO` [Example 102-5], for which the MIC was more than 64 µg/mL in assay [1]; less than 2 µg/mL with APAE001 (ATCC27853); less than 2 µg/mL in assay [2]; less than 2 µg/mL in the assay with AECO001 HSA AGP; less than 2 µg/mL in assay [3]; less than 2 µg/mL in the assay on AECO001 (ATCC25922). Further, in assay [5], the MIC was 2 to 16 µg/mL (≈ 4.47 to 35.8 µM). In addition, the “MIC APAE006 + PMBN” value in assay [4] is given as “A (MIC's of 2.0 μg/mL or less = A)”.
For the molecule `NC[C@H](NC(=O)c1ccc(C#C/C=C/c2ccccc2)cc1)C(=O)NO` [Example 104-2], the MIC in assay [1] is 16 to 64 µg/mL (≈ 45.8 to 183 µM); with APAE001 (ATCC27853) it was 2 to 16 µg/mL (≈ 5.72 to 45.8 µM); in assay [2], less than 2 µg/mL; against AECO001 HSA AGP, 2 to 16 µg/mL (≈ 5.72 to 45.8 µM); in assay [3], less than 2 µg/mL; with AECO001 (ATCC25922) it was less than 2 µg/mL. Also, the MIC in assay [5] was in the range of 16 to 64 µg/mL (≈ 45.8 to 183 µM). In addition, in assay [4], the “MIC APAE006 + PMBN” value is listed as “A (MIC's of 2.0 μg/mL or less = A)”.
Regarding `C[C@@H](N)[C@H](NC(=O)c1ccc(/C=C/C#Cc2cccnc2)cc1)C(=O)NO` [Example 114-9], the MIC in assay [1] was 16 to 64 µg/mL (≈ 43.9 to 176 µM); in the assay on APAE001 (ATCC27853), less than 2 µg/mL; in assay [2], less than 2 µg/mL; against AECO001 HSA AGP, 2 to 16 µg/mL (≈ 5.49 to 43.9 µM); in assay [3], less than 2 µg/mL; in the assay with AECO001 (ATCC25922), 2 to 16 µg/mL (≈ 5.49 to 43.9 µM). Further, the MIC in assay [5] is 2 to 16 µg/mL (≈ 5.49 to 43.9 µM). The “MIC APAE006 + PMBN” value in assay [4] was “A (MIC's of 2.0 μg/mL or less = A)”.
Consider `C[C@@H](N)[C@H](NC(=O)c1ccc(C#Cc2ccc(CNCC(F)F)cc2)cc1)C(=O)NO` [Example 119-1, N-((1S,2R)-2-Amino-1-hydroxycarbamoyl-propyl)-4-{4-[(2,2-difluoro-ethylamino)-methyl]-phenylethynyl}-benzamide], for which the MIC in assay [1] is 16 to 64 µg/mL (≈ 37.2 to 149 µM); in the assay on APAE001 (ATCC27853) it was less than 2 µg/mL; in assay [2] it was less than 2 µg/mL; in the assay with AECO001 HSA AGP, 2 to 16 µg/mL (≈ 4.65 to 37.2 µM); in assay [3] it was less than 2 µg/mL; with AECO001 (ATCC25922) it was less than 2 µg/mL. For the same molecule, the MIC in assay [5] was 2 to 16 µg/mL (≈ 4.65 to 37.2 µM). In addition, the “MIC APAE006 + PMBN” value in assay [4] is “A (MIC's of 2.0 μg/mL or less = A)”.
For `C[C@@H](O)[C@H](NC(=O)c1ccc(/C=C/C#Cc2ccc(CN3CCOCC3)cc2)cc1)C(=O)NO` [Example 30-12a], the MIC was more than 64 µg/mL in assay [1]; less than 2 µg/mL in the assay on APAE001 (ATCC27853); less than 2 µg/mL in assay [2]; less than 2 µg/mL against AECO001 HSA AGP; less than 2 µg/mL in assay [3]; less than 2 µg/mL with AECO001 (ATCC25922). Moreover, in assay [5], the MIC is 2 to 16 µg/mL (≈ 4.31 to 34.5 µM). In assay [4], the “MIC APAE006 + PMBN” value is “A (MIC's of 2.0 μg/mL or less = A)”.
For `C[C@@H](NC(=O)CNC1CC1)[C@H](NC(=O)c1ccc(C#Cc2ccc(CO)cc2)cc1)C(=O)NO` [Example 137-3], the MIC in assay [1] is 16 to 64 µg/mL (≈ 34.4 to 138 µM); in the assay with APAE001 (ATCC27853), 2 to 16 µg/mL (≈ 4.31 to 34.4 µM); in assay [2], less than 2 µg/mL; with AECO001 HSA AGP, 2 to 16 µg/mL (≈ 4.31 to 34.4 µM); in assay [3] it was less than 2 µg/mL; with AECO001 (ATCC25922), less than 2 µg/mL. For the same molecule, the MIC in assay [5] lay in the range of 16 to 64 µg/mL (≈ 34.4 to 138 µM). The “MIC APAE006 + PMBN” value in assay [4] was “A (MIC's of 2.0 μg/mL or less = A)”.
Regarding `C[C@@H](NCC(=O)NC[C@H](NC(=O)c1ccc(C#C/C=C/c2ccccc2)cc1)C(=O)NO)c1ccccc1` [Example 105-4], the MIC in assay [1] was 16 to 64 µg/mL (≈ 31.3 to 125 µM); in the assay with APAE001 (ATCC27853), 16 to 64 µg/mL (≈ 31.3 to 125 µM); in assay [2], 2 to 16 µg/mL (≈ 3.92 to 31.3 µM); in the assay on AECO001 HSA AGP, 2 to 16 µg/mL (≈ 3.92 to 31.3 µM); in assay [3], less than 2 µg/mL; with AECO001 (ATCC25922), less than 2 µg/mL. In addition, the MIC in assay [5] lay in the range of 16 to 64 µg/mL (≈ 31.3 to 125 µM). Further, the “MIC APAE006 + PMBN” value in assay [4] is on record as “A (MIC's of 2.0 μg/mL or less = A)”.
For `C[C@@H](O)[C@H](NC(=O)c1ccc(C#C/C=C/c2ccc(CNC3CC3)cc2)cc1)C(=O)NO` [Example 102-1, 4-[(E)-4-(4-Cyclopropylaminomethyl-phenyl)-but-3-en-1-ynyl]-N-((1S,2R)-2-hydroxy-1-hydroxycarbamoyl-propyl)-benzamide], the MIC is 16 to 64 µg/mL (≈ 36.9 to 148 µM) in assay [1]; 2 to 16 µg/mL (≈ 4.61 to 36.9 µM) with APAE001 (ATCC27853); less than 2 µg/mL in assay [2]; 2 to 16 µg/mL (≈ 4.61 to 36.9 µM) in the assay on AECO001 HSA AGP; less than 2 µg/mL in assay [3]; less than 2 µg/mL in the assay on AECO001 (ATCC25922). In addition, the MIC in assay [5] was 16 to 64 µg/mL (≈ 36.9 to 148 µM). For the same molecule, the “MIC APAE006 + PMBN” value in assay [4] is “A (MIC's of 2.0 μg/mL or less = A)”.

Values taken from patent publication US9617256B2 (priority 2007, dated 2017).
